Converted amounts (≈) assume the structure as drawn.
Tests used:
Format in all cases: cell-based
[1] = test system: Staphylococcus aureus NCTC 6571; assay: MIC, macrodilution broth procedure; conditions: NCTC6571
Experimental: (§1) These studies were performed to determine the minimum inhibitory concentration (MIC) of incensole/furanogermacren mixture.
(§2) MIC values were determined using a macrodiluton broth procedure based on NCCLS Documents M7-A3 “Methods for dilution anti-microbial susceptibility tests for bacteria that grow aerobically-third edition, approved standard (1993).

[2] = test system: Enterococcus feacalis NCTC 775; assay: MIC, macrodilution broth procedure; conditions: NCTC775
Experimental: as §1, §2

HT29 colon carcinoma = assay: clonogenic assay (two-layered soft agar), HT29; conditions: Homo sapiens, HT-29, continuous exposure 5-6 days, read-out: IC50 (inhibition of colony formation by 50%)
Experimental: (§3) In vitro cytotoxic activity of extracts containing high concentrations of incensole, furanogermacren and incensole/furanogermacren mixture were determined in several cultured tumour cell lines by performing the […] clonogenic assay. This assay assesses the inhibition of colony formation of tumour stem cells growing in soft agar by cytotoxic agents. Since tumour stem cells are responsible for the proliferate potential and aggressiveness of a tumour cell population, the clonogenic assay is highly predictive of in vivo response.
(§4) The extracts were dissolved in DMSO/water 1:1, prepared as a 30 mg/ml solution and stored at −20° C. until use. […]
(§5) Human tumour cell lines were grown in RPMI 1640 supplemented with 10% fetal calf serum and 2 mM L-glutamine. […] For treatment experiments, exponentially growing cells were trypsinized, washed twice with PBS and the percentage of viable cells was determined by hemocytometer count using trypan blue viable dye exclusion.
(§6) The clonogenic assay was performed according to a modified two-layered soft agar assay. […] Cultures were incubated at 5% CO2 and 37° C. in a humidifled atmosphere for 5-6 days under continuous exposure to drugs and monitored closely for colony growth using an inverted microscope. […]
(§7) If an ID50 or IC70 value could not be determined within the examined dose range, the lowest or highest concentration studies was used for the calculation. […]

[3] = test system: PC3 Human Prostate Carcinoma; assay: clonogenic assay (two-layered soft agar), PC3; conditions: continuous exposure 5-6 days, read-out: IC50 (inhibition of colony formation by 50%)
Experimental: as §3, §4, §5, §6, §7

[4] = test system: Staphylococcus aureus NCTC 10442; assay: MIC, macrodilution broth procedure; conditions: NCTC10442
Experimental: These studies were performed to determine the minimum inhibitory concentration (MIC) of incensole/furanogermacren mixture. MIC values were determined using a macrodiluton broth procedure based on NCCLS Documents M7-A3 “Methods for dilution anti-microbial susceptibility tests for bacteria that grow aerobically-third edition, approved standard (1993). […] The following organisms were tested: [table]

MIC [1]: 38 µg/mL (≈ 124 µM) | MIC [2]: 38 µg/mL (≈ 124 µM) | IC50 (HT29 colon carcinoma): 70 µg/mL (≈ 228 µM) | IC50 [3]: 6 µg/mL (≈ 19.6 µM) | MIC [4]: 38 µg/mL (≈ 124 µM)
SMILES: C/C1=C\C[C@]2(C(C)C)CC[C@@](C)(O2)[C@@H](O)CC/C(C)=C/CC1 [Incensole, incensole]
